# Structures can show the parent of a compound that is named as a salt.
# What was measured:
# [1] = test system: retina (photo-oxidative injury); assay: Neuroprotective effects in the acute blue-light damage model in the rat (ERG); type: in vivo, Sprague Dawley rats; conditions: for A-wave Amplitude Mean / B-wave Amplitude Mean: ERG after 5-day recovery
# Description: Male Sprague Dawley rats were randomly assigned to vehicle treatment (N=15) or drug treatment (0.5 mg/kg [N=5] or 1 mg/kg [N=15]) experimental groups. Xaliproden hydrochloride or vehicle was administered by intraperitonal (IP) injection at 48, 24, and 0 hours prior to light exposure. Photo-oxidative injury to the retina was induced in dark-adapted rats (24 hours) by a 6-hour blue-light exposure (220 fc). Control rats (N=11) were housed in their home cage under normal cyclic light exposure. Rats were single housed in clear polycarbonate cages during this light exposure.
# The electroretinogram (ERG) was recorded after a five day recovery period from dark-adapted anesthetized rats (Ketamine-HCl, 75 mg/Kg; Xylazine, 6 mg/Kg). The eye's electrical response to a flash of light was elicited by viewing a ganzfeld. ERGs to a series of light flashes increasing in intensity were digitized to analyze temporal characteristics of the waveform and determine the response voltage-log intensity (VlogI) relationship. Changes in the ERG a-wave are associated with photoreceptor and retinal pigment epithelium damage while damage to the inner retina is reflected in changes in the ERG b-wave.
# [2] = molecular target: T1, human cloned 5-HT1A receptors (Homo sapiens, UniProt P08908); assay: 5-HT1A Receptor Binding Assay ([3H]8-OH-DPAT, CHO cell membranes); conditions: 0.25 nM [3H]8-OH-DPAT, 27° C., 1 h; read-out: Receptor Binding (IC50 nM, SEM)
# T1 construct: purchased NEN (manufactured by Biosignal, Inc., Montreal, Canada); host or cells: CHO cells
# T1 sequence (P08908 1-422): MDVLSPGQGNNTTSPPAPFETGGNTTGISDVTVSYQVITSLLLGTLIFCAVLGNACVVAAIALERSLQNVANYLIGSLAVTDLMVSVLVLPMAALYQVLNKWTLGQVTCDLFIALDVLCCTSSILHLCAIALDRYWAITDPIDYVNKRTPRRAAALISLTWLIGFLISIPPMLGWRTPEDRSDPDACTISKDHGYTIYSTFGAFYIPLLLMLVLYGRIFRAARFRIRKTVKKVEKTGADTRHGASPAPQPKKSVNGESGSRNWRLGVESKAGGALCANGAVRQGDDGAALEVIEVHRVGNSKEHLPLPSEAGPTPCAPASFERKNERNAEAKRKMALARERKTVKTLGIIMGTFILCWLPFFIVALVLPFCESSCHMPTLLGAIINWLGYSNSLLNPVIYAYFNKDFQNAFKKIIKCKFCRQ
# Description: 5-HT1A binding studies were performed with human cloned receptors expressed in Chinese hamster ovary (CHO) cells using (^3H)8-OH DPAT as the ligand. Membranes from Chinese hamster ovary cells (CHO) expressing cloned 5-HT1A receptors (manufactured for NEN by Biosignal, Inc., Montreal, Canada) were homogenized in approximately 40 volumes of 50 mM Tris pH 7.4 for 5 sec. Drug dilutions were made using a Beckman Biomek 2000 robot (Beckman Instruments, Fullerton, Calif.). Incubations were conducted with membrane prep, test compounds, and 0.25 nM [^3H]8-OH-DPAT (NEN, Boston, Mass.) in the same buffer at 27° C. for 1 h. Assays were terminated by rapid vacuum filtration over Whatman GF/B glass fiber filters pre-soaked in 0.3% polyethyleneimine. Bound radioactivity was measured using liquid scintillation spectrometry. Data were analyzed using non-linear curve fitting programs (Sharif et al., J. Pharmac. Pharmacol. 51:685-694, 1999).
# Ligand binding studies can also be run using membrane preparations from calf and rat brain (local source) and human cortex membranes. Specific brain regions were dissected out, homogenized in 10 volumes of 0.32 M sucrose and centrifuged for 10 min at 700×g. […] Ki values were calculated using the Cheng-Prusoff equation (De Vry et al., J. Pharm. Exper. Ther. 284:1082-1094, 1998.)
# 5-HT1A receptors = molecular target: T2, 5-HT1A receptors (UniProt P08908); assay: 5-HT1A Functional Assay (cAMP inhibition, forskolin-stimulated adenylate cyclase); conditions: read-out: cAMP Inhibition (EC50)
# T2 sequence (P08908 1-422): T1 sequence (P08908 1-422)
# Description: HeLa cells transfected with recombinant human 5-HT1A receptors were grown to confluence in 24-well plates. The cells were rinsed with 1 ml of Hepes-buffered saline (in MM) NaCl 130, KCl 5.4, CaCl2, 1.8, MgSO4 0.8, NaH2PO4 0.9, glucose 25, Hepes 20, pH 7.4, and phenol red 5 mg/l. The cells were labelled with 6 μCi/ml of [^2-3H]adenine (23 Ci/mmol, Amersham, Rahn AG, Zurich, Switzerland) in 0.5 ml of saline at 37 ° C. for 2 hr. The plates were subsequently rinsed twice with 1 ml of buffered saline containing 1 mM isobutylmethylxanthine. The cells were incubated for 15 min in 1 ml of this solution (37° C.) in the presence or absence of 10 μM forskolin and the test compound. The buffer was then removed and 1 ml of 5% trichloroacetic acid (TCA) containing 0.1 mM cAMP and 0.1 mM ATP was added to extract the samples. […] Cyclic AMP production was calculated as the ratio [^3H]cAMP/([^3H]cAMP+[^3H]ATP).
# [3] = 0.5 mg/kg IP at 48, 24, 0 h before 6-hour blue-light exposure
# [4] = 1.0 mg/kg IP at 48, 24, 0 h before 6-hour blue-light exposure
smiles,measurement,setting,value
"FC(F)(F)c1cccc(C2=CCN(CCc3ccc4ccccc4c3)CC2)c1 [SR-57746A, xaliproden hydrochloride]",A-wave Amplitude Mean,[1]; [3],550.5 μV
same,B-wave Amplitude Mean,[1]; [3],1361.1 μV
same,"Maximum a- and b-wave response amplitudes, % of controls","[1]; 0.5 mg/kg, light-exposed rats",82%
same,A-wave Amplitude Mean,[1]; [4],460.8 μV
same,B-wave Amplitude Mean,[1]; [4],1169.4 μV
same,"Maximum a- and b-wave response amplitudes, % of normal","[1]; 1 mg/kg, light-exposed rats",70%
same,Protection of retinal function,"[1]; 0.5 and 1.0 mg/kg, light-exposed rats",Significant protection of retinal function
same,IC50,[2],2.5 nM
same,EC50,5-HT1A receptors,3.7 nM

# Reference: patent US20030119846A1, “Compounds with 5-ht activity useful for controlling visual field loss” (priority 2000, published 2003)
